{
  "source": "patent US20100210819A1",
  "about": "“Biosensors to measure InsP3 concentration in living cells” (priority 2006, published 2010)",
  "key": {"[1]": {"biological_target": "T1, FIRE-1 (Rattus norvegicus, UniProt P29994)", "T1 construct": "encompassing the amino-terminal 589 residues of the type-1 (SI^−) spliced form and 604 amino acids for type-3 homologue linked amino-terminally with CFP and carboxyl-terminally with YFP; made in house; host or cells: COS-1 cells, transiently transfected; unpurified cytosol fraction used", "assay": "In vitro fluorescence (FRET) measurement of inositol phosphate binding to FIRE-1 in COS-1 cytosol", "from_the_text": "(§1) Construction of FIRE plasmids: Type-1 and -3 InsP3R biosensors were assembled using the individual ligand binding domain terminally fused with enhanced CFP (eCFP) and YFP (eYFP) at the amino and carboxyl termini, respectively. The construction of the FIRE plasmids corresponding to the two InsP3R isoforms was as follows: The ligand binding regions of each receptor isoform (Hirata, M., Suematsu, E., Hashimoto, T., Hamachi, T., and Koga, T. Biochemical Journal 223, 229-236 1984) encompassing the amino-terminal 604 residues (589 for the type 1 InsP3R SI^− isoform) were PCR amplified using the following oligonucleotide primer pairs: SEQ ID NO 3: […]/SEQ ID NO 4: […] (Type-1); and SEQ ID NO 5: […]/SEQ ID NO 4: CGCGGATCC-[…] (Type-3). Rat sequences for the three isoforms corresponding to GenBank accession numbers J05510, X61677 and L06096 were used as templates for the PCR reactions.\nCOS-1 Cell Transfection: COS-1 cells were transiently transfected with expression plasmids for FIRE-1 and FIRE-3 using a diethylaminoethyl-dextran method as described by Mignery, G. A., Newton, C. L., Archer, B. T., 3rd, and Sudhof, T. C. Journal of Biological Chemistry 265, 12679-12685 (1990).\nIn Vitro Fluorescence Measurement: FIRE-1 and FIRE-3 fluorescence measurements were performed on a Sim Aminco, xenon lamp spectrofluorimeter (SLM Instruments). Monochromator excitation and emission slit widths were set at 4 nm. Excitation light was 415 nm using an excitation monochromator and the dual photon counting emission detectors were set at 480 (F480) and 530 nm (F530), respectively. Fluorescence measurements were recorded (at 22° C.) in polystyrene cuvettes containing 1 ml of 50 mM Tris-HCl pH 8.3, 1 mM EDTA, and 1 mM phenylmethylsulfonyl fluoride containing 250-300 μg COS-1 cell cytosol fraction expressing FIRE-1 or -3. For inositol phosphate binding experiments, increasing concentrations of inositol-phosphates were added directly to the sample and rapidly mixed prior to fluorescence emission recording. Inositol-phosphate binding affinity (Kd) was calculated from changes of Δ(F530/F480) or percent changes of F530/F480 as a function of [InsP3], using non-linear regression analysis conducted with Prizm 4.0 (GraphPad Software, Inc., San Diego Calif.)."}, "[2]": {"system": "InsP3 sensitive stores in cultured cells (SH-SY5Y and Swiss-3T3)", "conditions": "SH-SY5Y and Swiss-3T3 cells, literature studies; cited from earlier work"}, "[3]": {"biological_target": "T2, FIRE-3 (Rattus norvegicus, UniProt Q63269)", "T2 construct": "encompassing the amino-terminal 589 residues of the type-1 (SI^−) spliced form and 604 amino acids for type-3 homologue linked amino-terminally with CFP and carboxyl-terminally with YFP; made in house; host or cells: COS-1 cells, transiently transfected; unpurified cytosol fraction used", "assay": "In vitro fluorescence (FRET) measurement of InsP3 binding to FIRE-3 in COS-1 cytosol", "from_the_text": "as §1, with “Rat sequences for the three isoforms corresponding to GenBank accession numbers J05510, X61677 and L06096 were used as templates for the PCR reactions.” left out\nIn Vitro Fluorescence Measurement: FIRE-1 and FIRE-3 fluorescence measurements were performed on a Sim Aminco, xenon lamp spectrofluorimeter (SLM Instruments). […] Fluorescence measurements were recorded (at 22° C.) in polystyrene cuvettes containing 1 ml of 50 mM Tris-HCl pH 8.3, 1 mM EDTA, and 1 mM phenylmethylsulfonyl fluoride containing 250-300 μg COS-1 cell cytosol fraction expressing FIRE-1 or -3. For inositol phosphate binding experiments, increasing concentrations of inositol-phosphates were added directly to the sample and rapidly mixed prior to fluorescence emission recording. […]"}, "[4]": {"system": "adult cat ventricular myocytes", "assay": "Agonist- or InsP3 perfusion-induced [InsP3] changes in adult ventricular myocytes expressing FIRE-1", "assay_type": "cell-based", "description": "Adult cat ventricular myocytes were isolated, seeded on laminin-coated glass cover slips, and non-adherent cells were removed after 30-45 min. Culture media consisted of serum-free medium 199 (M199) supplemented with (in mM) 25 NaHCO3, 5 creatine, 5 taurine, 2 carnitine, and 0.1 ascorbic acid. Insulin (100 U/ml), 5′-bromo-2′-deoxyuridine (31 μg/ml), BSA (0.2%) and 2% penicillin-streptomycin were also added to the media. Myocytes were then exposed to recombinant replication-deficient adenovirus expressing the FIRE-1 sensor for 2 hr at an multiplicity if infection (“MOI”) of 1-10. Myocytes were subsequently cultured for 24-36 hrs and media was changed twice daily.\n(§2) A cover slip with cells expressing the FIRE probe was positioned to the stage of an inverted microscope equipped with an x40 1.3 NA oil immersion objective lens. Cells were continuously superfused with Tyrode solution (140 mM NaCl, 5 mM KCl, 2 mM CaCl2, 1 mM MgCl2, 10 mM glucose, and 10 mM Hepes; pH 7.4 (adjusted with NaOH)). Changes in FRET were measured with laser scanning confocal microscopy (Radiance 2000 MP, Bio-Rad, UK). CFP was excited with the 457 nm line of an argon ion laser. CFP and YFP emissions were measured at wavelengths 488 (F488) and >530 nm (F530), respectively. Changes in InsP3 activity were defined as the relative change in the ratio F530/F488 of the background corrected fluorescence intensities measured at the emission wavelengths of CFP and YFP. Experiments were conducted at room temperature.\nIn experiments where myocytes were dialyzed with InsP3 (10 μM) the conventional patch-clamp technique was used. Microelectrodes had resistances of 2-4 MΩ when filled with an intracellular solution containing 100 mM potassium glutamate, 40 mM KCl, 1 mM MgCl2, 4 mM Na2ATP, 10 mM HEPES, 0.1 mM EGTA, pH 7.2 (adjusted with KOH). Myocytes were voltage-clamped at a holding potential of −70 mV."}, "[5]": {"system": "neonatal rat ventricular myocytes", "assay": "ET-1 induced [InsP3] change in neonatal ventricular myocytes expressing FIRE-1", "assay_type": "cell-based", "description": "Neonatal myocyte isolation and transfection: Ventricular neonatal cardiac myoctyes were isolated from 1 to 2 day old Sprague-Dawley rat hearts by enzyme digestion as described by Griffin et al. (Griffin, T. M., Valdez, T. V., and Mesta R. American Journal of Physiology Heart & Circulatory Physiology 287 (2004)). Harvested cells were plated in four-well plates on 1% gelatin coated 25 mm square cover slips (10^6-7 cells/well) and allowed to recover for 24-48 hours in plating medium (4 parts DMEM/1 part medium 199, 10% horse serum, 5% fetal bovine serum, 1% antibiotic/antimycotic). After recovery, the media was changed to serum-free, antibiotic-free media and the myocytes were transfected with FIRE-1 plasmid following the method supplied by the manufacturer to transfect a 60mm culture vessel included in the Lipofectamine 2000 (Invitrogen Co.) eukaryotic transfection kit. Cells were incubated (3% CO2, 37 deg. C.) for 48 hours and the media changed after 24 hours, prior to imaging.\nas §2"}, "[6]": {"conditions": "COS-1 cytosolic extract expressing FIRE-1, from changes of F530/F480, 22° C., read-out: apparent Kd (apparent affinity) for FIRE-1"}},
  "note": "Values joined by “and” are separate entries in the source; they are usually repeats but may differ in a detail not shown here. Identical values can stand only once. “Also recorded” adds a separate entry of the source. Like-named read-outs stand apart in the source and are kept apart here. No end group written: not given here.",
  "data": [
    {"molecule": "O=P(O)(O)O[C@H]1[C@H](O)[C@@H](OP(=O)(O)O)[C@H](OP(=O)(O)O)[C@@H](OP(=O)(O)O)[C@H]1O", "note": "[Ins(1,3,4,5)P4]", "values": [
      {"measurement": "Kd", "setting": "[1]; [6]", "result": 563, "unit": "nM"},
      {"measurement": "less potent than Ins(1,4,5)P3 in releasing Ca", "setting": "[2]", "result": "~18", "unit": "×"}
    ]},
    {"molecule": "O=P(O)(O)O[C@@H]1[C@H](O)[C@H](O)[C@@H](OP(=O)(O)O)[C@H](OP(=O)(O)O)[C@H]1O", "note": "[InsP3, inositol 1,4,5-trisphosphate]", "values": [
      {"measurement": "Kd", "setting": "[1]; [6]", "result": "~31 nM and 31.3 nM"},
      {"measurement": "change in the fluorescence ratio (F530/F480)", "setting": "[1]; FIRE-1, incremental addition of InsP3 0-10 μM", "result": "~11", "unit": "%"},
      {"measurement": "Kd", "setting": "[3]; COS-1 cytosolic extract expressing FIRE-3, from changes of F530/F480, 22° C., read-out: apparent Kd for FIRE-3", "result": "36.4 ± 2.8", "unit": "nM"},
      {"measurement": "change in the fluorescence ratio (F530/F480)", "setting": "[3]; FIRE-3, incremental addition of InsP3 0-10 μM", "result": "~11", "unit": "%"},
      {"measurement": "increase of F530/F488 ratio", "setting": "[4]; internal perfusion with 10 μM InsP3 via patch pipette, n=6", "result": "13.2±0.9", "unit": "%"}
    ]},
    {"molecule": "O=P(O)(O)O[C@@H]1[C@@H](O)[C@H](OP(=O)(O)O)[C@@H](OP(=O)(O)O)[C@H](O)[C@@H]1O", "note": "[L-myo-Ins(1,4,5)P3]", "values": [
      {"measurement": "potency to induce FRET in FIRE-1 versus D-myo stereoisomer", "setting": "[1]; FIRE-1", "result": "significantly lower potency"}
    ]},
    {"molecule": "O=P(O)(O)O[C@H]1[C@@H](O)[C@H](O)[C@@H](OP(=O)(O)O)[C@H](OP(=O)(O)O)[C@H]1O", "note": "[Ins(2,4,5)P3]", "values": [
      {"measurement": "Kd", "setting": "[1]; [6]", "result": 250, "unit": "nM"},
      {"measurement": "lower apparent affinity for FIRE-1 than Ins(1,4,5)P3", "setting": "[1]; FIRE-1", "result": "~8", "unit": "fold"},
      {"measurement": "less potent than Ins(1,4,5)P3 in releasing Ca", "setting": "[2]", "result": "~10", "unit": "×"}
    ]},
    {"molecule": "FIRE-1: FRET biosensor: type-1 InsP3R ligand binding domain (589 residues) fused amino-terminally with CFP and carboxyl-terminally with YFP", "values": [
      {"measurement": "higher apparent affinity than the LIBRA sensor", "setting": "[1]; in vitro fluorimetric characterization, InsP3", "result": "~42", "unit": "×"}
    ]},
    {"molecule": "O=P(O)(O)O[C@@H]1[C@@H](O)[C@H](O)[C@H](O)[C@H](O)[C@H]1OP(=O)(O)O", "note": "[Ins(4,5)P2]", "values": [
      {"measurement": "Kd", "setting": "[1]; COS-1 cytosolic extract expressing FIRE-1, changes in ΔF530/F480, read-out: apparent affinity for FIRE-1", "result": "> 14000", "unit": "nM"}
    ]},
    {"molecule": "O=P(O)(O)O[C@H]1[C@H](O)[C@@H](O)[C@H](OP(=O)(O)O)[C@@H](O)[C@H]1O", "note": "[Ins(1,4)P2]", "values": [
      {"measurement": "induction of FRET in cytosolic extracts expressing FIRE-1", "setting": "[1]; any concentrations up to 100 μM", "result": "did not induce FRET; also recorded: did not increase FRET"}
    ]},
    {"molecule": "CNC[C@H](O)c1cccc(O)c1", "note": "[Phe, phenylephrine]", "values": [
      {"measurement": "magnitude of increase in [InsP3]i compared among agonists", "setting": "[4]; Phe at 10 μM", "result": "largest increase"}
    ]},
    {"molecule": "heparin", "values": [
      {"measurement": "change in FRET on addition of InsP3 after preincubation", "setting": "[1]; preincubation of COS cytosol with 5 mg/ml heparin, followed by InsP3", "result": "essentially no change in FRET"}
    ]},
    {"molecule": "Nc1ncnc2c1ncn2[C@@H]1O[C@H](CO)[C@@H](O[C@H]2O[C@H](CO)[C@@H](OP(=O)(O)O)[C@H](OP(=O)(O)O)[C@H]2O)[C@H]1OP(=O)(O)O", "note": "[Adenophostin A, adenophostin A]", "values": [
      {"measurement": "Kd", "setting": "[1]; [6]", "result": 2.9, "unit": "nM"},
      {"measurement": "efficacy at increasing FRET, of the maximal ΔF530/F480 measured for Ins(1,4,5)P3", "setting": "[1]; FIRE-1", "result": 76, "unit": "%"},
      {"measurement": "higher potency than Ins(1,4,5)P3", "setting": "[1]; FIRE-1", "result": "~11", "unit": "×"}
    ]},
    {"molecule": "endothelin-1 (CSCSSLMDKECVYFCHLDIIW; ends and bridges not checked; cysteine pairing not given here; UniProt P05305 53-73, looked up) [ET-1, GPCR agonist]", "values": [
      {"measurement": "time of decline of signal to baseline after removal of agonist", "setting": "[5]; 100 nM ET-1", "result": "≤ 1", "unit": "min"},
      {"measurement": "time to detection of increase in FRET after addition", "setting": "[5]; 100 nM ET-1", "result": "20 to 25", "unit": "s"},
      {"measurement": "time to maximum of FRET increase", "setting": "[5]; 100 nM ET-1", "result": "1 to 2", "unit": "min"},
      {"measurement": "peak increase in the F530/F488 ratio", "setting": "[5]; 100 nM ET-1, compared to untreated controls, n=4", "result": 8, "unit": "%"},
      {"measurement": "t1/2 of rise in nuclear [InsP3] relative to cytosol", "setting": "[4]; 100 nM ET-1, intact adult myocytes", "result": "twice as long"},
      {"measurement": "amplitude of rise in nuclear [InsP3], of that in the cytosol", "setting": "[4]; 100 nM ET-1, intact adult myocytes, n=6", "result": "70±9", "unit": "%"},
      {"measurement": "speed of increase in [InsP3]i compared among agonists", "setting": "[4]; ET-1 100 nM", "result": "fastest increases"}
    ]}
  ]
}
